For data set [1], the system named is Vancomycin-resistant Enterococcus faecalis (VRE, ATCC BAA-2573). Nature of the data set: Synergy checkerboard assay / broth micro-dilution MIC (ISO 20776-1 with modifications). In kind it is cell-based. The method, then: • 1. Preparation of the inoculum of Vancomycin-resistant Enterococcus faecalis (VRE, ATCC BAA-2573). Inoculum is prepared by suspension of 1 colony of bacteria (medium size colony from Tryptic Soy agar plate) in 3 ml of Tryptic Soy broth (TSB) using a 200 μL tip. The solution is mixed by vortexing and incubated at 37° C. overnight (19-24 hours) under shaking at 200 rpm. • 2. Preparation of the Antimicrobial dilution on the day of the experiment. Stock solutions are performed with distilled water for all antimicrobial compound except for Fluometacyl (ethanol). Dilution for each condition is made in Mueller-Hinton broth (NMB). 50p of APIs dilution is added to wells of a 96 wells microplate (each condition in duplicate-triplicate). • Antimicrobial compounds were prepared as follows: • Fluometacyl (F) (4 mg/mL in 100% EtOH) served as a master stock. To obtain the final concentration of 40 μg/ml in the bacterial suspension, initial stock of 160 μg/ml in Mueller-Hinton broth (MHB) was prepared and further 2-fold diluted using the following serial dilution scheme: • (1): 40 μg/ml (160 μg/ml, prepared in MHB) • (2): 20 μg/ml (80 μg/ml, dilution in MHB) • (3): 10 μg/ml (40 μg/ml, dilution in MHB) • (4): 5 μg/ml (20 μg/ml, dilution in MHB) • (5): 2.5 μg/ml (10 μg/ml, dilution in MHB) • (6): 1.25 μg/ml (5 μg/ml, dilution in MHB) • Chlorhexidine acetate (CHLX) (2 mg/mL in H2O) served as a master stock. To obtain the final concentration of 4 μg/ml in the bacterial suspension, initial stock of 16 μg/ml in MHB was prepared and further 2-fold diluted using the following serial dilution scheme: • (1): 8 μg/ml (32 μg/ml, prepared in MHB) • (2): 4 μg/ml (16 μg/ml, prepared in MHB) • (3): 2 μg/ml (8 μg/ml, dilution in MHB) • (4): 1 μg/ml (4 μg/ml, dilution in MHB) • (5): 0.5 μg/ml (2 μg/ml, dilution in MHB) • (6): 0.25 μg/ml (1 μg/ml, dilution in MHB) • 3. Preparation of VRE. Before the experiment, the VRE bacterial suspension (incubated overnight) is diluted 100× in TSB in 4 mL of TSB and grown at 37 C under agitation 200 rpm until OD600 reaches 0.08 to 0.16. This corresponds to the cell density […]. 100 μl of the bacterial solution (OD600 ranging from 0.08 to 0.16) is added to 9 900 μL of Mueller-Hinton Broth (MHB) (dilution 1:100). • 4. Preparation of a 96-well plate. 100 μL of bacteria (diluted 1:100 in MHB from the point 3) is added in each well of the plate containing 100 μL of the serially diluted APIs alone or in combinations as shown in the p. 2. Bacteria should be added into the 96-well plate within the 30 minutes following the preparation of the bacteria in order to maintain the same number of CFU/mL. Plates are incubated at 37° C. overnight. A condition with MHB medium alone or bacteria without APIs will also be added as the control conditions. Since fluometacyl is dissolved in ethanol, extra conditions are added: MHB with ethanol in order to assess the effect of ethanol on bacterial growth. • Following scheme is applied: • 2 antibacterial compounds: 50 μL of a antimicrobial 1+50 μL of a antimicrobial 2+100 μL of bacterial suspension in MHB • 1 antibacterial compound: 50 μL of a drug 1/2+50 μL of MHB+100 μL of bacterial suspension in MHB • Growth control: 100 μL MHB (+/−Ethanol)+100 μL of bacterial suspension • BLANK: MHB only • 5. CFU counting of the initial challenge inoculum. 10 μL of the solution of the bacteria used as the positive control is diluted in 10 mL of TSB. 100 μL is spread on Tryptic Soy agar (done in triplicate) and incubated at 37° C. overnight • 6. Results. The MIC is the lowest concentration that inhibits completely the visible growth of the bacteria (no turbidity in a well). The OD at 600 nm is also recorded for each well as back-up data.
Synergy evaluation resulting from the comparison between activity of the combination of the antimicrobial compounds and their individual activities was represented as the Fractional Inhibitory Concentration (FIC) index value. […]
On the technique in general: Broth dilution looks for growth in wells or tubes with falling amounts of substance.

The subject of data set [2] is Staphylococcus aureus MRSA. The settings on record: cited from earlier work.
The test system of the next data set is Lactobacillus fermentum. The settings on record: cited from earlier work.
Data set [3] has as its system Lactobacillus acidophilus. The settings on record: cited from earlier work.
In another data set the test system is Candida tropicalis. The settings on record: cited from earlier work.
Another data set relates to Aspergillus spp. The settings on record: cited from earlier work.
The conditions of data set [4]: chlorhexidine base; cited from earlier work.

By MIC is commonly meant the smallest concentration in the dilution series that meets the test's criterion for growth inhibition. As to `[H]/N=C(\N/C(=N/[H])NCCCCCCNC(=N)NC(=N)Nc1ccc(Cl)cc1)Nc1ccc(Cl)cc1` [Chlorhexidine, chlorhexidine], the MIC in data set [1] (Enterococcus faecalis, antimicrobial alone, read-out: MIC Monotherapy (X)) amounted to 4000 µg/mL. For the same molecule, the “Ratio Y/X” value in data set [1] (MIC combination / MIC monotherapy) is given as 0.125-0.5. Moreover, the “MIC combination dual therapy (Y)” value in data set [1] (in FLC + CHX combination) fell in the range of 500 to 2000 µg/mL. The MIC of chlorhexdine was 2 to 8 µg/mL in data set [2]; 0.25 to 1 µg/mL in the data set with Lactobacillus fermentum; 0.5 to 2 µg/mL in data set [3]; 75 µg/mL with Candida tropicalis; 8 to 64 µg/mL in the data set on Aspergillus spp.. Further, in data set [4], the solubility in water entry is given as “insoluble in water”.

The values above are taken from US20250375453A1, “HIGH-EFFICIENCY ANTIMICROBIAL COMPOSITION” (CM4CURE S.A., priority 2023, published 2025).
